The text below walks through data of US20080262228A1, “Metabolites of 5-fluoro-8- quinoline and methods of preparation and uses thereof” (Wyeth, priority 2006, published 2008).

One data set in a line: in vitro. Particulars: microsomes. As to the method:
Experiments were conducted to determine the intrinsic clearance by substrate depletion for COMPOUND I metabolism in liver microsomes in the presence of NADPH and UDPGA. Incubations containing midazolam (0.2 μM with 0.1 mg/mL liver microsomes) or diclofenac (1 μM with 1 mg/mL liver microsomes) were also performed as positive controls for oxidative and glucuronidation activity, respectively. Sample preparation and incubation were performed on a MultiProbe IIEX Robotic Liquid Handling System (Perkin-Elmer, Shelton, Conn.) and a Micromix 5 (Packard, Downers Grove, Ill.). Samples were pre-incubated at 37° C. Control incubations were conducted under the same conditions without cofactors. At specified time points (0, 10, 20 and 30 min), 150 μL aliquots were transferred to tubes with 500 μL acetonitrile containing 30 ng/mL of the internal standard (furosemide) to precipitate the protein. Samples were centrifuged at 4° C. for 10 min at 3400 rpm (ThermoForma, Marietta, Ohio). The supernatant (400 μL) was transferred to a clean test tube and the acetonitrile evaporated under a stream of nitrogen in a Turbo Vap (Caliper Life Sciences, Hopkinton, Mass.). The samples were then reconstituted in 200 μL of 20% methanol in water and analyzed by LC/MS.
The HPLC system used was a Surveyor HPLC (Thermo Electron Corp., San Jose, Calif.). Separations were accomplished on a Supelcosil LC-C18 column (150×4.6 mm, 5 μm) (Supelco, Bellefonte, Pa.). The column temperature was maintained at ambient and the sample chamber was at 10° C. Mobile phase A was 5 mM ammonium acetate in water and mobile phase B was methanol.
The mass spectrometer used for microsomal stability analysis was a TSQ Quantum (Thermo Electron Corp.; San Jose, Calif.) equipped with an electrospray ionization (ESI) source and operated in the positive ionization mode.
Peak area ratios for COMPOUND I against the internal standard were used to express the % remaining at given time points. The percent of remaining COMPOUND I was calculated by dividing the […]. In vitro intrinsic clearance (CLint) of COMPOUND I was calculated by linear regression of log % remaining vs time plots using Microsoft Excel, 7.0 and normalizing to mg protein content. Metabolic half-life (t1/2) was calculated by dividing 0.693 by the intrinsic clearance.

The nature of data set [1]: Metabolite profiling in liver microsomes and S9. Type of data set: in vitro ADME, rat, dog, monkey, human. Particulars: liver microsomes and S9, 10 μM COMPOUND I, 30 min; species letters not defined. On the procedure: Microsomal incubations for metabolite profiling were similar to those described above for intrinsic clearance determination (see Table 1). Aliquots of COMPOUND I (10 μL), dissolved in DMSO:methanol (1:9), were added to a 96-well plate containing phosphate buffer, and MgCl2 and the liver microsomes at 37° C. using the same automation apparatus as for the stability study described hereinabove. The reactions were initiated by the addition of the UDPGA and NADPH generating system. The final incubation volume for all samples was 1 mL and the length of incubation was 30 min. […] Three 250 μL aliquots were transferred to a 96-well plate containing 900 μL acetonitrile to precipitate the protein. […] The samples were then reconstituted in 150 μL of 20% methanol in water. The three aliquots for each sample were pooled and analyzed by LC/MS.
S9 incubation buffer and cofactors were chosen to allow N-acetylation and carbamoyl glucuronidation in addition to oxidative and glucuronidation pathways possible in liver microsomes. Incubations of sulfamethazine and SCA-136 with liver S9 were used as positive controls for N-acetylation and carbamoyl glucuronidation, respectively. Following a 30 min. incubation, 750 μL from each sample were added to 900 μL acetonitrile. Following centrifugation and evaporation of the supernatant, the samples were reconstituted in 450 μL of 20% methanol in water for analysis by HPLC/UV and LC/MS (see below).
The HPLC system used for mass spectrometric analysis was an Agilent 1100 HPLC (Agilent Technologies, Palo Alto, Calif.) equipped with a binary pump and a diode array UV detector. The UV detector was set to monitor 190-400 nm. Separations were accomplished on a Luna C18 column (150×2.1 mm, 5 μm) (Phenomenex Incorporated, Torrance, Calif.).
The mass spectrometer used for metabolite characterization was a Finnigan LCQ Deca ion trap mass spectrometer (Thermo Electron Corp.). […] Full scan and data dependent MS2 and MS3 mass spectra were recorded. Finnigan Xcalibur software (version 1.3) was used for control of equipment and recording of data from UV and LC/MS analyses.
Chromatographic profiles of COMPOUND I (10 μM) metabolites in incubations with liver microsomes in the presence of NADPH are presented in FIG. 1. Chromatographic profiles of COMPOUND I (10 μM) metabolites in incubations with liver microsomes in the presence of NADPH and UDPGA are presented in FIG. 2. Chromatographic profiles of COMPOUND I (10 μM) metabolites in incubations with liver S9 in the presence of NADPH, UDPGA and acetyl coenzyme A (CoA) are presented in FIG. 3. In incubations containing NADPH, UDPGA and acetyl CoA, fourteen Phase I metabolites (M1, M6, M8, M12, M13, M14, M15, M16, M17, M18, M20, M21, M22 and M23) and six Phase II metabolites (M2, M3, M5, M7, M9 and M10) were observed. In incubations without cofactors, no metabolites were observed.
LC/MS analysis was conducted on extracts of mouse, rat, monkey and human liver microsomes and S9. The mass spectral data for the characterized COMPOUND I metabolites are discussed below.
(In general: Liver microsomes are a subcellular fraction often used to study metabolism.)

Where a name gives a salt, the structure may show the parent alone.

Regarding `COc1cc(N2CCN(C3CCN(c4ccc(F)c5cccnc45)CC3)CC2)c2ncccc2c1` [COMPOUND I, 5-Fluoro-8-{4-[4-(6-methoxyquinolin-8-yl)piperazin-1-yl]piperidin-1-yl}quinoline], the half-life (usually how long it takes for the measured level to halve) at 1 μM is 7 min in “in vitro” (both, human); 2 min in “in vitro” (male, Sprague-Dawley, rat); 13 min in “in vitro” (male, beagle, dog); 2 min in “in vitro” (male, monkey). Also, the microsomal CLint (usually the rate of metabolic loss divided by the concentration) at 1 μM in “in vitro” (both, human) came to 100 µL/min/mg; in the data set “in vitro” (male, Sprague-Dawley, rat), 332 µL/min/mg; in “in vitro” (male, beagle, dog), 55 µL/min/mg; in the data set “in vitro” (male, monkey) it was 312 µL/min/mg. Also, the “Species (in which the metabolite was characterized)” value in data set [1] is on record as “R, D, M, H”.

Take `Oc1cc(N2CCN(C3CCN(c4ccc(F)c5cccnc45)CC3)CC2)c2ncccc2c1` [Metabolite M21, 8-{4-[1-(5-fluoroquinolin-8-yl)piperidin-4-yl]piperazin-1-yl}quinolin-6-ol trihydrochloride]: the “Species (in which the metabolite was characterized)” value in data set [1] is given as “R, D, M, H”.
